Columns and labels:
[1] = Half life in mouse liver microsomes at 10 uM in presence of NADPH by LC-MS/MS analysis; format: ADME, microsome; conditions: for half-life at 10 µM: liver microsomes
[2] = Extraction ratio in human liver microsomes at 10 uM in presence of NADPH by LC-MS/MS analysis; format: ADME, microsome; conditions: read-out: ERH
[3] = Half life in human liver microsomes at 10 uM in presence of NADPH by LC-MS/MS analysis; format: ADME, microsome; conditions: for half-life at 10 µM: liver microsomes
[4] = Extraction ratio in mouse liver microsomes at 10 uM in presence of NADPH by LC-MS/MS analysis; format: ADME, microsome; conditions: read-out: ERH
[5] = Metabolic stability in mouse liver microsomes assessed as parent compound remaining at 10 uM in presence of NADPH after 60 mins by LC-MS/MS analysis; format: ADME, microsome; conditions: 1 h
[6] = Drug metabolism in human liver microsomes assessed as 6-(4-(o-tolylsulfonyl)piperazin-1-yl)pyridazine-3-carboxamide formation at 10 uM in presence of NADPH after 60 mins by LC-MS/MS analysis; format: ADME, microsome; conditions: 1 h
[7] = Metabolic stability in human liver microsomes assessed as parent compound remaining at 10 uM in presence of NADPH after 60 mins by LC-MS/MS analysis; format: ADME, microsome; conditions: 1 h
[8] = Drug metabolism in mouse liver microsomes assessed as oxidation at benzene ring A at 10 uM in presence of NADPH after 30 to 60 mins by LC-MS/MS analysis; format: ADME, microsome
[9] = Drug metabolism in mouse liver microsomes assessed as oxidation at benzene ring B at 10 uM in presence of NADPH after 30 to 60 mins by LC-MS/MS analysis; format: ADME, microsome
[10] = Drug metabolism in mouse liver microsomes assessed as oxidation at benzene ring C at 10 uM in presence of NADPH after 30 to 60 mins by LC-MS/MS analysis; format: ADME, microsome
[11] = Drug metabolism in mouse liver microsomes assessed as oxidation at benzene ring D at 10 uM in presence of NADPH after 30 to 60 mins by LC-MS/MS analysis; format: ADME, microsome
[12] = Aqueous solubility in pH 7.4 PBS buffer; format: physicochemical
[13] = Drug level in human liver microsomes treated with N-benzyl-6-(4-(o-tolylsulfonyl)piperazin-1-yl)pyridazine-3-carboxamide at 10 uM in presence of NADPH after 60 mins by LC-MS/MS analysis; format: ADME, microsome; conditions: 1 h
[14] = Drug level in mouse liver microsomes treated with N-benzyl-6-(4-(o-tolylsulfonyl)piperazin-1-yl)pyridazine-3-carboxamide at 10 uM in presence of NADPH after 60 mins by LC-MS/MS analysis; format: ADME, microsome; conditions: 1 h

half-life at 10 µM [1] [min]	hepatic extraction ratio at 10 µM [2]	half-life at 10 µM [3] [min]	hepatic extraction ratio at 10 µM [4]	SMILES	further results
13	–	–	–	O=C(NCc1ccc(F)cc1)c1ccc(N2CCN(S(=O)(=O)c3cccnc3Cl)CC2)nn1	–
18	0.59	30	0.77	Cc1ccccc1S(=O)(=O)N1CCN(c2ccc(C(=O)NCc3cncs3)nn2)CC1	–
72	–	–	–	O=C(NCc1ccc(F)cc1)c1ccc(N2CCN(S(=O)(=O)c3cccnc3O)CC2)nn1	–
15	–	–	0.8	Cc1cc(F)ccc1S(=O)(=O)N1CCN(c2ccc(C(=O)NCc3ccc(F)cc3)nn2)CC1	–
2	–	–	–	O=C(NCc1ccc(F)cc1)c1ccc(N2CCN(S(=O)(=O)c3cccnc3N3CCOCC3)CC2)nn1	–
23	–	–	–	Cc1nc(C(F)(F)F)ccc1S(=O)(=O)N1CCN(c2ccc(C(=O)NCc3ccc(F)cc3)nn2)CC1	–
2	0.92	4	0.97	Cc1ccccc1S(=O)(=O)N1CCN(c2ccc(C(=O)NCc3cccs3)nn2)CC1	–
19	–	–	–	Nc1ncccc1S(=O)(=O)N1CCN(c2ccc(C(=O)NCc3ccc(F)cc3)nn2)CC1	–
14	0.73	16	0.81	O=C(NCc1ccccc1)c1ccc(N2CCN(S(=O)(=O)c3cccc(Cl)c3Cl)CC2)nn1	–
8	–	–	–	Cc1ncccc1S(=O)(=O)N1CCN(c2ccc(C(=O)NCc3ccc(F)cc3)nn2)CC1	–
2	0.89	5	0.97	O=C(NCc1ccccc1)c1ccc(N2CCN(S(=O)(=O)c3ccccc3Cl)CC2)nn1	–
113	0.29	0.35	–	O=C(NCc1ccc(F)cc1)c1ccc(N2CC3(C2)CN(S(=O)(=O)c2cccnc2Cl)C3)nn1	–
5	–	–	–	N#Cc1ncccc1S(=O)(=O)N1CCN(c2ccc(C(=O)NCc3ccc(F)cc3)nn2)CC1	–
5	0.96	2	0.94	Cc1ccccc1S(=O)(=O)N1CC=C(c2ccc(C(=O)NCc3ccc(F)cc3)nn2)CC1	–
20	0.61	27	0.75	O=C(NCc1ccccc1)c1ccc(N2CCC(S(=O)(=O)c3cccc(Cl)c3Cl)CC2)nn1	–
6	–	–	–	O=C(NCc1ccc(F)cc1)c1ccc(N2CCN(S(=O)(=O)c3cccnc3C3CC3)CC2)nn1	–
16	–	–	–	N#Cc1ncccc1S(=O)(=O)N1CCN(c2ccc(C(=O)NCc3ccc(F)cc3)[n+]([O-])n2)CC1	–
2	0.97	1	0.98	Cc1ccccc1S(=O)(=O)N1CC2(CN(c3ccc(C(=O)NCc4ccc(F)cc4)nn3)C2)C1	–
–	0.93	–	0.97	Cc1ccccc1S(=O)(=O)N1CCN(c2ccc(C(=O)NCc3ccccc3)nn2)CC1	t1/2 ([1]; microsomes, 10 µM): 2 min; t1/2 ([3]; microsomes, 10 µM): 3 min; Stability [5]: 42%; Drug metabolism [6]: Metabolite_Notdetected; Stability [7]: 62%
31	–	–	0.66	O=C(NCc1ccc(F)cc1)c1ccc(N2CCN(S(=O)(=O)c3ccccc3C(F)(F)F)CC2)nn1	Drug metabolism [8]: Metabolite_Notdetected; Drug metabolism [9]: Metabolite_Detected; Drug metabolism [10]: Metabolite_Detected; Drug metabolism [11]: Metabolite_Detected
3	0.95	2	0.95	Cc1ccccc1S(=O)(=O)N1CCN(c2cnc(C(=O)NCc3ccc(F)cc3)cn2)CC1	–
68	0.78	12	0.47	Cc1ccc(F)cc1S(=O)(=O)N1CCN(c2ccc(C(=O)NCc3ccc(F)cc3)nn2)CC1	solubility [12]: Insoluble
12	–	–	0.84	O=C(NCc1ccc(F)cc1)c1ccc(N2CCN(S(=O)(=O)c3ccc(F)cc3C(F)(F)F)CC2)nn1	Drug metabolism [8]: Metabolite_Notdetected; Drug metabolism [9]: Metabolite_Detected; Drug metabolism [10]: Metabolite_Detected; Drug metabolism [11]: Metabolite_Detected
26	0.56	34	0.7	Cc1ccccc1S(=O)(=O)N1CCN(c2ccc(C(=O)NCc3ccc(F)cc3)nn2)CC1	–
–	–	–	–	Cc1ccccc1S(=O)(=O)N1CCN(c2ccc(C(N)=O)nn2)CC1	Drug metabolism [13]: Metabolite_Detected; Drug metabolism [14]: Metabolite_Detected
